# In PMC7274154, “Identification and Characterization of GPCRs for Pyrokinin and CAPA Peptides in the Brown Marmorated Stink Bug, Halyomorpha halys (Hemiptera: Pentatomidae)” (Frontiers in Physiology, 2020):
# “Also recorded” adds a separate entry of the source. Where no end group is shown, it is not given here.
# Columns and labels:
# Assay type in all cases: cell-based, Halyomorpha halys
# [1] = test system: HalhaPK-R1b; experiment: Concentration-response, calcium mobilization (FLIPR Calcium 6) in Sf9 cells expressing HalhaPK-R1b; conditions: for EC50: HalhaPK-R1b in Sf9 cells, intracellular calcium, FLIPR Calcium 6 fluorescence, at least three independent experiments, read-out: Half-maximum effective concentration (EC50)
# Method: (§1) Five micrograms of each purified pIB/HalhaPK-R (or CAPA-R) plasmid and 15 μL of Cellfectin II reagent (Thermo Fisher Scientific) were diluted into 500 μL of serum free Insectagro Sf9 medium (Corning, Corning, NY, United States) and allowed to incubate for 10 min at room temperature, after which they were mixed together and allowed to incubate for an additional 15–20 min. Each pIB/HalhaPK-R (or CAPA-R) Cellfectin mixture was then added to T-25 cell culture flasks containing Sf9 cells at 50% confluency and incubated overnight at 28°C. The following morning the media was removed from each flask and replaced with media containing 20 μg/mL blasticidin (Corning). Each transfected cell line was cultured in the presence of 20 μg/mL blasticidin for ∼3 weeks until a blasticidin-resistant cell line was established, after which the blasticidin concentration was reduced to 10 μg/mL and the cell lines were frozen prior to testing in functional assays.
# (§2) Peptides encoded by H. halys pyrokinin and capa genes used in this study have been recently identified ([Ahn and Choi, 2018]). Four peptides (>95% purity): PK2 (FYAPFSPRLa), CAPA-PVK1 ([…]a), CAPA-PVK2 (EQLIPFPRVa), and CAPA-DH (= PK1-like, […]a) were synthesized to contain an amide group on their C-termini (Peptide 2.0 Inc., Chantilly, VA, United States). Peptides were solubilized in water, aliquoted into 2–20 nM working stocks, dried using a DNA120 SpeedVac Concentrator (Thermo Scientific), and frozen at –20°C until use in binding assays.
# (§3) For each cell line expressing a specific H. halys PRXamide receptor, cells were thawed and cultured for at least three passages in a suspension culture containing blasticidin prior to functional assays. The transfected cell lines were grown as 20 mL suspension cultures in 50 mL-Erlenmeyer flasks with a screw cap, and shaken at 145 rpm at 28°C. For functional assays, cells were taken from a suspension culture in the exponential growth phase, and ∼50,000 cells were plated into each well of a tissue culture-treated, black-walled, 96-well plate (Corning). The plated cells were then incubated at 28°C for 48 h, after which the media was removed from the plates and the wells were rinsed with serum-free media, then loaded with 95 μL of 1X FLIPR Calcium 6 assay reagent (Molecular Devices, Sunnyvale, CA, United States). Plates were incubated at room temperature for 60 min then transferred to a FlexStation 3 Multi-Mode Microplate Reader (Molecular Devices) to measure cell fluorescence intensity from intracellular calcium influx after peptide-induced receptor activation. Wells of cells were then treated with 5 μL of water or 20X concentrations of each peptide using the automated injection system of the FlexStation plate reader. In all experiments, fluorescence was measured every 5 s for 30 s prior to treatment and for 2 min after exposure. In all cases, the maximum response obtained occurred ∼20 s after exposure to ligand. The mean response of four wells receiving the same treatment was calculated and expressed as a change in fluorescence from baseline (prior to treatment) to maximum response. For initial screening, each cell line was exposed to a single concentration of 500 nM of each peptide or control. Compounds that elicited responses were tested further in concentration-response experiments. […]
# [2] = test system: HalhaPK-R3b; experiment: Concentration-response, calcium mobilization (FLIPR Calcium 6) in Sf9 cells expressing HalhaPK-R3b; conditions: for EC50: HalhaPK-R3b in Sf9 cells, intracellular calcium, FLIPR Calcium 6 fluorescence, at least three independent experiments, read-out: Half-maximum effective concentration (EC50); for Response in functional assay (words): HalhaPK-R3b, Sf9 cells, concentration-response
# Method: as §1, §2
# (§4) For each cell line expressing a specific H. halys PRXamide receptor, cells were thawed and cultured for at least three passages in a suspension culture containing blasticidin prior to functional assays. The transfected cell lines were grown as 20 mL suspension cultures in 50 mL-Erlenmeyer flasks with a screw cap, and shaken at 145 rpm at 28°C. For functional assays, cells were taken from a suspension culture in the exponential growth phase, and ∼50,000 cells were plated into each well of a tissue culture-treated, black-walled, 96-well plate (Corning). The plated cells were then incubated at 28°C for 48 h, after which the media was removed from the plates and the wells were rinsed with serum-free media, then loaded with 95 μL of 1X FLIPR Calcium 6 assay reagent (Molecular Devices, Sunnyvale, CA, United States). Plates were incubated at room temperature for 60 min then transferred to a FlexStation 3 Multi-Mode Microplate Reader (Molecular Devices) to measure cell fluorescence intensity from intracellular calcium influx after peptide-induced receptor activation. Wells of cells were then treated with 5 μL of water or 20X concentrations of each peptide using the automated injection system of the FlexStation plate reader. In all experiments, fluorescence was measured every 5 s for 30 s prior to treatment and for 2 min after exposure. In all cases, the maximum response obtained occurred ∼20 s after exposure to ligand. The mean response of four wells receiving the same treatment was calculated and expressed as a change in fluorescence from baseline (prior to treatment) to maximum response. For initial screening, each cell line was exposed to a single concentration of 500 nM of each peptide or control. Compounds that elicited responses were tested further in concentration-response experiments. Concentration-response curves and EC50 values were generated using the variable slope, four parameter non-linear regression function of GraphPad Prism data analysis (GraphPad Software, Inc., San Diego, CA, United States). Each cell line was tested for its response to peptides in at least three independent experiments.
# [3] = test system: HalhaPK-R1a; experiment: Concentration-response, calcium mobilization (FLIPR Calcium 6) in Sf9 cells expressing HalhaPK-R1a; conditions: for EC50: HalhaPK-R1a in Sf9 cells, intracellular calcium, FLIPR Calcium 6 fluorescence, at least three independent experiments, read-out: Half-maximum effective concentration (EC50)
# Method: as §1, §2, §3
# [4] = test system: HalhaCAPA-R; experiment: Concentration-response, calcium mobilization (FLIPR Calcium 6) in Sf9 cells expressing HalhaCAPA-R; conditions: for EC50: HalhaCAPA-R in Sf9 cells, intracellular calcium, FLIPR Calcium 6 fluorescence, at least three independent experiments, read-out: Half-maximum effective concentration (EC50); for Response in functional assay (words): HalhaCAPA-R, Sf9 cells, concentration-response
# Method: as §1, §2, §4
# [5] = test system: HalhaPK-R2; experiment: Concentration-response, calcium mobilization (FLIPR Calcium 6) in Sf9 cells expressing HalhaPK-R2; conditions: for EC50: HalhaPK-R2 in Sf9 cells, intracellular calcium, FLIPR Calcium 6 fluorescence, at least three independent experiments, read-out: Half-maximum effective concentration (EC50); for Response in functional assay (words): HalhaPK-R2, Sf9 cells, concentration-response
# Method: as §1, §2, §4
# [6] = test system: HalhaPK-R3a; experiment: Concentration-response, calcium mobilization (FLIPR Calcium 6) in Sf9 cells expressing HalhaPK-R3a; conditions: for EC50: HalhaPK-R3a in Sf9 cells, intracellular calcium, FLIPR Calcium 6 fluorescence, at least three independent experiments, read-out: Half-maximum effective concentration (EC50); for Response in functional assay (words): HalhaPK-R3a, Sf9 cells, concentration-response
# Method: as §1, §2, §4
# [7] = test system: HalhaPK-R2; experiment: Initial screening at 500 nM, Sf9 cells expressing HalhaPK-R2; conditions: three independent experiments
# Method: as §1, with “Each transfected cell line was cultured in the presence of 20 μg/mL blasticidin for ∼3 weeks until a blasticidin-resistant cell line was established, after which the blasticidin concentration was reduced to 10 μg/mL and the cell lines were frozen prior to testing in functional assays.” left out
# (§5) For each cell line expressing a specific H. halys PRXamide receptor, cells were thawed and cultured for at least three passages in a suspension culture containing blasticidin prior to functional assays. […] Plates were incubated at room temperature for 60 min then transferred to a FlexStation 3 Multi-Mode Microplate Reader (Molecular Devices) to measure cell fluorescence intensity from intracellular calcium influx after peptide-induced receptor activation. Wells of cells were then treated with 5 μL of water or 20X concentrations of each peptide using the automated injection system of the FlexStation plate reader. In all experiments, fluorescence was measured every 5 s for 30 s prior to treatment and for 2 min after exposure. […]
# [8] = test system: HalhaPK-R1b; experiment: Initial screening at 500 nM, Sf9 cells expressing HalhaPK-R1b; conditions: three independent experiments
# Method: as §1, with “Each transfected cell line was cultured in the presence of 20 μg/mL blasticidin for ∼3 weeks until a blasticidin-resistant cell line was established, after which the blasticidin concentration was reduced to 10 μg/mL and the cell lines were frozen prior to testing in functional assays.” left out
# as §5
# [9] = test system: HalhaPK-R3a; experiment: Initial screening at 500 nM, Sf9 cells expressing HalhaPK-R3a; conditions: three independent experiments
# Method: as §1, with “Each transfected cell line was cultured in the presence of 20 μg/mL blasticidin for ∼3 weeks until a blasticidin-resistant cell line was established, after which the blasticidin concentration was reduced to 10 μg/mL and the cell lines were frozen prior to testing in functional assays.” left out
# as §5
# [10] = test system: HalhaPK-R1a; experiment: Initial screening at 500 nM, Sf9 cells expressing HalhaPK-R1a; conditions: three independent experiments
# Method: as §1, with “Each transfected cell line was cultured in the presence of 20 μg/mL blasticidin for ∼3 weeks until a blasticidin-resistant cell line was established, after which the blasticidin concentration was reduced to 10 μg/mL and the cell lines were frozen prior to testing in functional assays.” left out
# as §5
# [11] = test system: HalhaPK-R3b; experiment: Initial screening at 500 nM, Sf9 cells expressing HalhaPK-R3b; conditions: three independent experiments
# Method: as §1, with “Each transfected cell line was cultured in the presence of 20 μg/mL blasticidin for ∼3 weeks until a blasticidin-resistant cell line was established, after which the blasticidin concentration was reduced to 10 μg/mL and the cell lines were frozen prior to testing in functional assays.” left out
# as §5
Compound,EC50 [1] [nM],EC50 [2] [nM],EC50 [3] [nM],EC50 [4] [nM],Response in functional assay (words) [4],EC50 [5] [nM],EC50 [6] [nM],Ligand-induced receptor activation (response in words) [7],Ligand-induced receptor activation (response in words) [8],Ligand-induced receptor activation (response in words) [9],Ligand-induced receptor activation (response in words) [10],Response in functional assay (words) [6],Ligand-induced receptor activation (response in words) [11],other results
CC(C)C[C@H](NC(=O)CNC(=O)[C@H](C)NC(=O)[C@@H](N)CC(=O)O)C(=O)N[C@@H](Cc1ccccc1)C(=O)N1CCC[C@H]1C(=O)N[C@@H](Cc1ccccc1)C(=O)N1CCC[C@H]1C(=O)N[C@@H](CCCNC(=N)N)C(=O)N[C@H](C(N)=O)C(C)C [CAPA-PVK1],> 1000,> 1000,> 1000,80,"responded specifically to PVK1 and PVK2 peptides; also recorded: concentration-dependent response to PVK1 and PVK2 (Figure 2), with similar sensitivity and degree of absolute magnitude",> 1000,> 1000,,,,,,,
CC[C@H](C)[C@H](NC(=O)[C@H](CC(C)C)NC(=O)[C@H](CCC(N)=O)NC(=O)[C@@H](N)CCC(=O)O)C(=O)N1CCC[C@H]1C(=O)N[C@@H](Cc1ccccc1)C(=O)N1CCC[C@H]1C(=O)N[C@@H](CCCNC(=N)N)C(=O)N[C@H](C(N)=O)C(C)C [CAPA-PVK2],> 1000,> 1000,> 1000,57,"responded specifically to PVK1 and PVK2 peptides; also recorded: concentration-dependent response to PVK1 and PVK2 (Figure 2), with similar sensitivity and degree of absolute magnitude",> 1000,> 1000,,,,,,,
FYAPFSPRL-NH2 [PBAN/PK2],420,142,> 1000,> 1000,,35,199,responded to PK2 and CAPA-DH peptides to varying degrees,responded to PK2 and CAPA-DH peptides to varying degrees,responded to PK2 and CAPA-DH peptides to varying degrees,responded to PK2 and CAPA-DH peptides to varying degrees,positive concentration-dependent activity,responded to PK2 and CAPA-DH peptides to varying degrees,"Response in functional assay (words) ([1]; HalhaPK-R1b, Sf9 cells, concentration-response): positive concentration-dependent activity; also recorded: responded weakly; Response in functional assay (words) [2]: positive concentration-dependent activity; also recorded: strongly responded to both PK1 and PK2 peptides; Response in functional assay (words) ([3]; HalhaPK-R1a, Sf9 cells, concentration-response): positive concentration-dependent activity; also recorded: responded weakly; Response in functional assay (words) [5]: strongest response; also recorded: responded strongly; also recorded: positive concentration-dependent activity; also recorded: much more sensitive to PK2 than the PK1 peptide"
NGASGNGGLWFGPRL-NH2 [CAPA-DH/PK1],> 1000,91,> 1000,> 1000,,800,660,responded to PK2 and CAPA-DH peptides to varying degrees,responded to PK2 and CAPA-DH peptides to varying degrees,responded to PK2 and CAPA-DH peptides to varying degrees,responded to PK2 and CAPA-DH peptides to varying degrees,concentration-dependent responses,responded to PK2 and CAPA-DH peptides to varying degrees,"Response in functional assay (words) ([2]; listed as CAPA-DH): highest sensitivity to PK1 (= CAPA-DH), especially for HalhaPK-R3b; also recorded: concentration-dependent responses; also recorded: most sensitive to CAPA-DH among the six GPCRs; Response in functional assay (words) ([2]; listed as PK1): strongest response to PK1; also recorded: strongly responded to both PK1 and PK2 peptides; Response in functional assay (words) ([5]; listed as CAPA-DH): concentration-dependent responses; Response in functional assay (words) ([5]; listed as PK1): moderate response"
